Laboratory results taken from US6908902B2, “Treatment of neurological dysfunction comprising fructopyranose sulfamates and erythropoietin” (Ortho-McNeil Pharmaceutical, Inc., priority 2001, dated 2005).

Assays:
Type in all cases: cell-based
[1] = system: Rat Cortical Cultures; test: Neurite Outgrowth MAP2-FITC Assay for Rat Cortical Cells; conditions: one week in culture, mean of eight observations
Excerpt: (§1) Dissociated hippocampal and cortical cell cultures were established from embryonic Day 18 rat fetuses as previously described (Mattson et al., 1994). Briefly, fetuses were removed via cesarean section from pregnant rats (Sprague-Dawley) and anesthetized with halothane according to the AVMA Panel on Euthanasia. Fetuses were decapitated and the brains were removed and placed in HEPES-buffered Hank's Balanced Salt solution (HBSS; Gibco). The hippocampi and cortices were dissected out and pooled according to tissue-type. Tissue was trypsinized for fifteen minutes (1 mg/ml trypsin-HBSS; Worthington), rinsed with fresh HBSS, incubated in trypsin inhibitor (1 mg/ml; Sigma) for five minutes, rinsed again with fresh HBSS and then triturated in 1 ml fresh HBSS with a fire-polished glass pipette. Dissociated cells were seeded at 20,000 cells (Array Scan Assay) and 30,000 cells (MAP2-FITC assay)/well onto poly-D-lysine coated 96-well plates (Collaborative BioScience). Each well contained 100 μl of Eagle's Minimal Essential Media (MEM; Gibco) supplemented with 26 mM NaHCO3 (Sigma), 56 mM glucose (Sigma), 15 mM KCl (Sigma), 1 mM sodium pyruvate (Sigma), 1.1 mM L-glutamine (Sigma), 10% (v/v) heat-inactivated fetal bovine serum (Hyclone), and 0.001% gentamicin sulfate (Sigma) (pH 7.4). Cells were allowed to attach for twenty-four hours in a humidified 37° C. 5% CO2 incubator before experimental treatment. The culture media was aspirated and exchanged with fresh media every three days.
(§2) Twenty-four hours after plating, rat cortical cell cultures, prepared as in Example 1, were treated with vehicle (phosphate buffered saline+0.1% bovine serum albumin; Sigma), topiramate, EPO (rhEPO; 50 μM stock in 0.2 M citrate, 0.585 g/L NaCl diluted to appropriate concentrations in phosphate buffered saline+0.1% bovine serum albumin (BSA; Sigma)) or a combination of topiramate and EPO. On the third day in culture, the media was aspirated off and replaced with fresh media and test compound. At one week in culture, the cells were fixed with 10% phosphate-buffered formalin for fifteen minutes, then rinsed with phosphate buffered saline and placed in blocking serum for thirty minutes (horse serum; 1:50 dilution in phosphate buffered saline; Vector Labs). Cultures were rinsed again with phosphate buffered saline and then incubated in primary antibody for two hours (microtubule-associated protein-2 (MAP-2) is a selective marker for dendritic processes; anti-mouse monoclonal (Chemicon); 1:1000 dilution of MAP-2 in antibody diluent (Zymed)). Negative control wells were incubated in antibody diluent alone. Background signal was determined by blank wells (cell-free) incubated with or without antibody. Cultures were rinsed again with phosphate buffered saline and then placed in fluorescein-labeled secondary antibody for one hour (FITC; anti-mouse IgG; rat adsorbed; 1:50 dilution in DPBS; Vector Labs). Cultures were rinsed a final time with phosphate buffered saline. The plates were then read on a Cytofluor 4000 fluorescence plate reader. Neurite outgrowth was expressed as percent change from control (vehicle; mean fluorescence±SEM).
(§3) The ability of rhEPO, topiramate and the combination of rhEPO and topiramate to increase neurite outgrowth in rat cortical cultures was determined according to the procedure described above, with results as listed in Table 3. For each case or treatment, the measured value in the Table represents the mean percent change of eight experimental observations (from vehicle control). The abbreviation NT, as used in Table 3 represents a concentration not tested.

[2] = system: Rat Cortical Cultures; test: Array Scan Assay, Neurite Outgrowth (Neuron-specific); conditions: mean of eight observations
Excerpt: as §1
Twenty-four hours after plating, rat cerebral cortical cell cultures, prepared as described above, were treated with vehicle (phosphate buffered saline+0.1% bovine serum albumin; Sigma), topiramate, EPO (rhEPO; 50 μM stock in 0.2 M citrate, 0.585 g/L NaCl diluted to appropriate concentrations in phosphate buffered saline+0.1% bovine serum albumin (BSA; Sigma)) or a combination of topiramate and EPO. On the third day in culture, the media was aspirated off and replaced with fresh media and test compound.
Culture media (prepared as described above) was aspirated and replaced with formaldehyde/Hoechst solution (fix cells and stain nuclei). Cultures were incubated in this solution for twenty minutes, then washed with permeabilization/wash/antibody (PWA) buffer. The buffer solution was aspirated and 100 μl of primary antibody (rabbit polyclonal IgG; specific for an epitope present only in neurons and neurites) was added to each well. The cultures were incubated for 60 minutes, then washed with PWA buffer. The buffer solution was again aspirated and 100 μl of secondary antibody (Alexa Fluor 488 conjugated goat anti-rabbit IgG) was added to each well. The cultures were incubated for 60 minutes and then washed with PWA buffer, followed by phosphate buffered saline (PBS) solution.
100 μl PBS-CM were added to each well, the plates were sealed and fluorescence was read on the Array Scan II System. (All reagents for this measurement were provided by the neurite outgrowth hit kit # K07-0001-1, Cellomics Inc.) The Array Scan algorithm for neurite outgrowth calculates the neurite outgrowth index for each field per well. This number represents the number of neurons with neurites divided by the total number of neurons in the field.
The ability of rhEPO, topiramate (TPM) and the combination of rhEPO and topiramate to increase neurite outgrowth in rat cortical cell cultures was determined according to the procedure described above, with results as listed in Table 1. For each dosage concentration, the measured value in the Table represents the mean percent change of eight experimental observations (from vehicle control). The abbreviation NT, as used in the Table below represents a concentration not tested.

[3] = system: Rat Hippocampal Cultures; test: Neurite Outgrowth MAP2-FITC Assay for Rat Hippocampal Cells; conditions: one week in culture, mean of eight observations
Excerpt: as §1
as §2, with “hippocampal” for “cortical”, “1 hr” for “one hour”
as §3, with “hippocampal” for “cortical”, “2.” for “3.”, “2” for “3”

[4] = Concentration 1 pM (rhEPO concentration in combinations)
[5] = Concentration 10 pM (rhEPO concentration in combinations)
[6] = Concentration 1 fM (rhEPO concentration in combinations)
[7] = Concentration 10 fM (rhEPO concentration in combinations)
[8] = Concentration 100 fM (rhEPO concentration in combinations)

Compound: rhEPO: Recombinant human erythropoietin; amino acid sequence identical to that of human urinary erythropoietin
- Neurite outgrowth, mean percent change from vehicle control (Measured) [1, 4]: 19%
- Neurite outgrowth, mean percent change from vehicle control (Measured) [1, 5]: 24%
- Neurite outgrowth, mean percent change from vehicle control (Measured) [1, 6]: −14%
- Neurite outgrowth, mean percent change from vehicle control (Measured) [1, 7]: −2%
- Neurite outgrowth, mean percent change from vehicle control (Measured) [1, 8]: 10%
- Neurite outgrowth, mean percent change from vehicle control (Measured) [2, 4]: 9%
- Neurite outgrowth, mean percent change from vehicle control (Measured) [2, 5]: 11%
- Neurite outgrowth, mean percent change from vehicle control (Measured) [2, 6]: 29%
- Neurite outgrowth, mean percent change from vehicle control (Measured) [2, 7]: −1%
- Neurite outgrowth, mean percent change from vehicle control (Measured) [2, 8]: 28%
- Neurite outgrowth, mean percent change from vehicle control (Measured) [3, 4]: 20%
- Neurite outgrowth, mean percent change from vehicle control (Measured) [3, 5]: 21%
- Neurite outgrowth, mean percent change from vehicle control (Measured) [3, 6]: 21%
- Neurite outgrowth, mean percent change from vehicle control (Measured) [3, 7]: 15%
- Neurite outgrowth, mean percent change from vehicle control (Measured) [3, 8]: 12%

Compound: CC1(C)O[C@@H]2[C@@H](CO[C@@]3(COS(N)(=O)=O)OC(C)(C)O[C@@H]23)O1 [Topiramate, 2,3:4,5-bis-O-(1-methylethylidene)-β-D-fructopyranose sulfamate, reference compound]
- Neurite outgrowth, mean percent change from vehicle control (Measured) [1, 4]: 23%
- Neurite outgrowth, mean percent change from vehicle control (Measured) [1, 5]: 30%
- Neurite outgrowth, mean percent change from vehicle control (Measured) ([1]; Concentration 100 pM): 37%
- Neurite outgrowth, mean percent change from vehicle control (Measured) [1, 8]: 24%
- Neurite outgrowth, mean percent change from vehicle control (Measured) [2, 4]: 0%
- Neurite outgrowth, mean percent change from vehicle control (Measured) [2, 5]: 20%
- Neurite outgrowth, mean percent change from vehicle control (Measured) ([2]; Concentration 100 pM): 12%
- Neurite outgrowth, mean percent change from vehicle control (Measured) [2, 8]: 4%
- Neurite outgrowth, mean percent change from vehicle control (Measured) [3, 4]: 14%
- Neurite outgrowth, mean percent change from vehicle control (Measured) [3, 5]: 5%
- Neurite outgrowth, mean percent change from vehicle control (Measured) ([3]; Concentration 100 pM): −9%
- Neurite outgrowth, mean percent change from vehicle control (Measured) [3, 8]: 33%
